Measurements from patent publication US6737383B1, “Herbicidal oxadiazolidines” (priority 1999, dated 2004).

Legend:
cocklebur = test: Test B pre/postemergence cocklebur; assay type: in vivo, Xanthium strumarium
Summary of the method: (§1)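 Test chemicals in a non-phytotoxic solvent mixture with surfactant were sprayed preemergence onto planted seeds and postemergence onto plants 2 to 18 cm tall (1- to 4-leaf stage). After twelve to sixteen days in a greenhouse, injury was visually rated against untreated controls from 0 (no effect) to 10 (complete control).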

surinam grass = test: Test B pre/postemergence surinam grass; assay type: in vivo, Brachiaria decumbens
Summary of the method: as §1

sugar beet = test: Test B pre/postemergence sugar beet; assay type: in vivo, Beta vulgaris
Summary of the method: as §1

morningglory = test: Test B pre/postemergence morningglory; assay type: in vivo, Ipomoea hederacea
Summary of the method: as §1

soybean = test: Test B pre/postemergence soybean; assay type: in vivo, Glycine max
Summary of the method: as §1

crabgrass = test: Test B pre/postemergence crabgrass; assay type: in vivo, Digitaria sanguinalis
Summary of the method: as §1

purple nutsedge = test: Test B pre/postemergence purple nutsedge; assay type: in vivo, Cyperus rotundus
Summary of the method: as §1

pigweed = test: Test B pre/postemergence pigweed; assay type: in vivo, Amaranthus retroflexus
Summary of the method: as §1

wild oat = test: Test B pre/postemergence wild oat; assay type: in vivo, Avena fatua
Summary of the method: as §1

bedstraw = test: Test B pre/postemergence bedstraw; assay type: in vivo, Galium aparine; conditions: Preemergence; for Bedstraw plant response rating: scale 0 to 10, 0 is no effect, 10 is complete control
Summary of the method: as §1

velvetleaf = test: Test B pre/postemergence velvetleaf; assay type: in vivo, Abutilon theophrasti
Summary of the method: as §1

blackgrass = test: Test B pre/postemergence blackgrass; assay type: in vivo, Alopecurus myosuroides
Summary of the method: as §1

wheat = test: Test B pre/postemergence wheat; assay type: in vivo, Triticum aestivum
Summary of the method: as §1

rape = test: Test B pre/postemergence rape; assay type: in vivo, Brassica napus
Summary of the method: as §1

corn = test: Test B pre/postemergence corn; assay type: in vivo, Zea mays
Summary of the method: as §1

giant foxtail = test: Test B pre/postemergence giant foxtail; assay type: in vivo, Setaria faberii
Summary of the method: as §1

[1] = Postemergence, Rate 62 g/ha, scale of 0 to 10, 0 is no effect, 10 is complete control
[2] = Postemergence, Rate 125 g/ha, scale 0 to 10, 0 is no effect, 10 is complete control
[3] = Postemergence, Rate 250 g/ha, scale 0 to 10
[4] = Postemergence, Rate 500 g/ha, scale 0 to 10, 0 is no effect, 10 is complete control
[5] = Preemergence, Rate 62 g/ha, scale of 0 to 10 where 0 is no effect and 10 is complete control
[6] = Preemergence, Rate 125 g/ha, scale 0 to 10, 0 is no effect, 10 is complete control
[7] = Preemergence, Rate 250 g/ha, scale 0 to 10, 0 is no effect, 10 is complete control
[8] = Preemergence, Rate 500 g/ha, scale of 0 to 10 where 0 is no effect and 10 is complete control

SMILES: CC(Cl)=CCn1c(=O)on(C(=O)N(c2ccc(F)cc2F)C(C)C)c1=O [Compound 514]
- Cocklebur plant response rating (cocklebur; [1]): 0
- Cocklebur plant response rating (cocklebur; [2]): 1
- Cocklebur plant response rating (cocklebur; [3]): 3
- Plant response rating, Cocklebur (cocklebur; [4]): 5
- Plant response rating, Cocklebur (cocklebur; [5]): 0
- Cocklebur plant response rating (cocklebur; [6]): 0
- Cocklebur plant response rating (cocklebur; [7]): 0
- Cocklebur plant response rating (cocklebur; [8]): 0
- B. signalgrass plant response rating (surinam grass; [1]): 0
- B. signalgrass plant response rating (surinam grass; [2]): 0
- B. signalgrass plant response rating (surinam grass; Postemergence, Rate 250 g/ha, scale 0 to 10, 0 no effect, 10 complete control): 3
- Plant response rating, B. signalgrass (surinam grass; [4]): 5
- Plant response rating, B. signalgrass (surinam grass; [5]): 6
- B. signalgrass plant response rating (surinam grass; [6]): 6
- B. signalgrass plant response rating (surinam grass; [7]): 8
- B. signalgrass plant response rating (surinam grass; Preemergence, Rate 500 g/ha, scale 0 to 10, 0 is no effect, 10 is complete control): 10
- Sugarbeets plant response rating (sugar beet; [1]): 3
- Sugarbeets plant response rating (sugar beet; [2]): 3
- Plant response rating, Sugarbeets (sugar beet; [4]): 5
- Plant response rating, Sugarbeets (sugar beet; [5]): 0
- Sugarbeets plant response rating (sugar beet; [6]): 5
- Sugarbeets plant response rating (sugar beet; [8]): 6
- Morningglory plant response rating (morningglory; [1]): 2
- Morningglory plant response rating (morningglory; [2]): 7
- Plant response rating, Morningglory (morningglory; [4]): 7
- Plant response rating, Morningglory (morningglory; [5]): 0
- Morningglory plant response rating (morningglory; [6]): 0
- Morningglory plant response rating (morningglory; [8]): 0
- Soybean plant response rating (soybean; [1]): 6
- Soybean plant response rating (soybean; [2]): 7
- Plant response rating, Soybean (soybean; [4]): 7
- Plant response rating, Soybean (soybean; [5]): 0
- Soybean plant response rating (soybean; [6]): 0
- Soybean plant response rating (soybean; [8]): 0
- Crabgrass plant response rating (crabgrass; [1]): 7
- Crabgrass plant response rating (crabgrass; [2]): 9
- Crabgrass plant response rating (crabgrass; [3]): 9
- Plant response rating, Crabgrass (crabgrass; [4]): 10
- Plant response rating, Crabgrass (crabgrass; [5]): 5
- Crabgrass plant response rating (crabgrass; [6]): 7
- Crabgrass plant response rating (crabgrass; [8]): 10
- Nutsedge plant response rating (purple nutsedge; [1]): 0
- Nutsedge plant response rating (purple nutsedge; [2]): 0
- Plant response rating, Nutsedge (purple nutsedge; [4]): 0
- Plant response rating, Nutsedge (purple nutsedge; [5]): 0
- Nutsedge plant response rating (purple nutsedge; [8]): 0
- Redroot pigweed plant response rating (pigweed; [1]): 0
- Redroot pigweed plant response rating (pigweed; [2]): 2
- Plant response rating, Redroot pigweed (pigweed; [4]): 8
- Plant response rating, Redroot pigweed (pigweed; [5]): 7
- Redroot pigweed plant response rating (pigweed; [6]): 8
- Redroot pigweed plant response rating (pigweed; [8]): 10
- Wild oats plant response rating (wild oat; [1]): 0
- Wild oats plant response rating (wild oat; [2]): 0
- Plant response rating, Wild oats (wild oat; [4]): 3
- Plant response rating, Wild oats (wild oat; [5]): 3
- Wild oats plant response rating (wild oat; [6]): 4
- Wild oats plant response rating (wild oat; [8]): 6
- Plant response rating, Bedstraw (bedstraw; Rate 62 g/ha, scale of 0 to 10 where 0 is no effect and 10 is complete control): 0
- Bedstraw plant response rating (bedstraw; Rate 250 g/ha): 0
- Bedstraw plant response rating (bedstraw; Rate 500 g/ha): 0
- Velvetleaf plant response rating (velvetleaf; [1]): 2
- Velvetleaf plant response rating (velvetleaf; [2]): 2
- Plant response rating, Velvetleaf (velvetleaf; [4]): 5
- Plant response rating, Velvetleaf (velvetleaf; [5]): 0
- Velvetleaf plant response rating (velvetleaf; [6]): 0
- Velvetleaf plant response rating (velvetleaf; [8]): 5
- Blackgrass plant response rating (blackgrass; [1]): 0
- Blackgrass plant response rating (blackgrass; [2]): 3
- Blackgrass plant response rating (blackgrass; [3]): 5
- Plant response rating, Blackgrass (blackgrass; [4]): 5
- Plant response rating, Blackgrass (blackgrass; [5]): 2
- Blackgrass plant response rating (blackgrass; [6]): 2
- Blackgrass plant response rating (blackgrass; [7]): 5
- Blackgrass plant response rating (blackgrass; [8]): 7
- Wheat plant response rating (wheat; [1]): 0
- Wheat plant response rating (wheat; [2]): 0
- Plant response rating, Wheat (wheat; [4]): 0
- Plant response rating, Wheat (wheat; [5]): 0
- Wheat plant response rating (wheat; [6]): 0
- Wheat plant response rating (wheat; [8]): 4
- Rape plant response rating (rape; [1]): 6
- Rape plant response rating (rape; [2]): 6
- Plant response rating, Rape (rape; [4]): 8
- Plant response rating, Rape (rape; [5]): 0
- Rape plant response rating (rape; [6]): 0
- Rape plant response rating (rape; [8]): 8
- Corn plant response rating (corn; [1]): 0
- Corn plant response rating (corn; [2]): 0
- Corn plant response rating (corn; [3]): 0
- Plant response rating, Corn (corn; [4]): 5
- Plant response rating, Corn (corn; [5]): 0
- Corn plant response rating (corn; [6]): 0
- Corn plant response rating (corn; [8]): 5
- Giant foxtail plant response rating (giant foxtail; [1]): 6
- Giant foxtail plant response rating (giant foxtail; [2]): 9
- Plant response rating, Giant foxtail (giant foxtail; [4]): 9
- Plant response rating, Giant foxtail (giant foxtail; [5]): 9
- Giant foxtail plant response rating (giant foxtail; [6]): 10
- Giant foxtail plant response rating (giant foxtail; [8]): 10
